How the values were obtained:
[1] = Size, polydispersity index and surface charge of mRNA-LNP (Malvern Zetasizer Nano ZS90); type: physicochemical; details: for PDI / size (nm) Number: mRNA-LNP made with the ionizable lipid at its optimal formulation (Table 2); for size (nm) Number: diluted with PBS to 1 μg/mL mRNA; for Zeta (mV): surface charge of mRNA-LNP made with the ionizable lipid at its optimal formulation (Table 2)
Protocol: Each mRNA-LNPs produced in Example 27 was diluted with PBS to a final mRNA concentration of 1 μg/mL. The size, polydispersity index (PDI), and surface charge of the mRNA-LNPs were then measured using a Malvern Zetasizer Nano ZS90 (Malvern Instruments, UK).
For particles intended for systemic administration, such as via blood vessels, the particle size must be less than 200 nm in order to pass through the endothelial capillaries of the liver. In addition, the size distribution is considered uniform only when the PDI is 0.3 or less, which enables consistent and efficient therapeutic effects (Non-patent document 3 [Danaei, M. et al). Pharmaceutics 2018, 10, 57]).

[2] = mRNA encapsulation efficiency (Quant-IT RiboGreen RNA assay); type: physicochemical; details: mRNA encapsulation efficiency of mRNA-LNP made with the ionizable lipid; average of two measurements
Protocol: The mRNA encapsulation efficiency (EE, %) of LNPs containing mRNA was measured using the Quant-IT™ RiboGreen® RNA assay kit (Invitrogen, USA).
The diluted samples were added to each well of a 96-well plate. Group A (without Triton X-100) was supplemented with 50 μL of 1×TE buffer, while Group B (with Triton X-100) was supplemented with 50 μL of 1×TE buffer containing 2% Triton-X 100. To release the encapsulated mRNA, the LNPs were treated with Triton-X 100 and incubated at 37° C. for 10 minutes. Subsequently, 100 μL of ribogreen reagent was added to each well. The fluorescence intensities of Group A and Group B were measured using a multi-plate reader (λex 480 nm, λem 520 nm), and mRNA encapsulation efficiency (%) was calculated using Equation 1 below. The encapsulation efficiency for each LNP was determined as the average of two independent measurements.

female C57BL/6 mice = test: Protein expression efficiency of fLuc mRNA-LNPs after intramuscular injection (IVIS whole-body luminescence); type: in vivo; details: for Total flux 1 hour / Total flux 3 hours / Total flux 6 hours / Total flux 48 hours / Total flux 72 hours / Total flux: fLuc mRNA-LNP, intramuscular injection, luminescence at injection site, mice; for Total flux 1 hour: 1 hour after administration; for Total flux 3 hours: 3 hours after administration; for Total flux 6 hours: 6 hours after administration; for Total flux 48 hours: 48 hours after administration; for Total flux 72 hours: 72 hours after administration; for Total flux: after administration; for Fold increase in total flux at 3 h, MC3: relative to control LNP formulated with MC3; for Fold increase in total flux at 3 h, MC3 / Fold increase in total flux at 3 h, SM-102: 3 hours after intramuscular injection; for Fold increase in total flux at 3 h, SM-102: relative to control LNP formulated with SM-102
Protocol: fLuc mRNA-LNPs formulated using various ionizable lipids were prepared according to the method described in Example 27 and administered in vivo via intramuscular (I. M.) or intravenous (IV.) injection to compare the resulting protein expression efficiency in vivo. As a control, EGFP mRNA-LNPs formulated with commercially available ionizable lipids MC3 or SM-102 were used. All mRNA-LNPs were administered at equal mRNA doses per body weight across different concentration groups (n≥4).
Specifically, the dose of mRNA-LNPs was adjusted to 0.1-0.5 mg/kg of body weight, and the formulation was administered via I.M. or I.V. injection to female C57BL/6 mice (6-10 weeks old, Orient Bio, Korea) Subsequently, […], whole-body luminescence images were acquired using an in vivo imaging system (IVIS Lumina III, PerkinElmer, Walzam, MA, USA). To assess protein expression levels, 200 μL of D-luciferin (15 mg/mL) was administered via intraperitoneal (I.P.) injection 10 minutes prior to imaging. During image acquisition, the animals were anesthetized by inhalation of 3% isoflurane in 97% medical grade oxygen. In addition, the acquired luminescence images were quantitatively analyzed using imaging software (Living Image Software Version 4.4; PerkinElmer, USA).
After intramuscular injection of the fLuc mRNA-LNPs, the luminescence intensity at the injection site was measured over time.
Furthermore, the luminescence intensity at the injection site 3 hours after intramuscular injection was measured, and the relative protein expression efficiency was compared to that of control LNPs formulated with MC3 or SM-102.

[3] = Stability of mRNA-LNPs according to storage temperature and duration; type: physicochemical; details: for Normalized EE % D-1 / Size (nm) D-1 / PDI D-1: day 1; for Normalized EE % D-7 / PDI D-7 / Size (nm) D-7: day 7; for Normalized EE % D-30 / PDI D-30 / Size (nm) D-30: day 30
Protocol: Stability of fLuc mRNA-LNPs produced using various ionizable lipids according to the method of Example 27, was assessed by storing the LNPs at 4° C. and 25° C. At 1, 7, and 30 days post-manufacture, the size, PDI, and encapsulation efficiency (EE) of each mRNA-LNPs samples were measured using the methods described in Experimental Examples 2 and 3.

[4] = tested on: CCL2 mRNA level in HEK-293T cells; details: human
[5] = tested on: CCL3 mRNA level in HEK-293T cells; details: human
[6] = tested on: IL-1β mRNA level in HEK-293T cells; details: human
[7] = tested on: IL-6 mRNA level in HEK-293T cells; details: human

SMILES	PDI [1]	size (nm) Number [1]	Zeta (mV) [1]	EE (%) [2]	Total flux 1 hour (female C57BL/6 mice)	Total flux 3 hours (female C57BL/6 mice)	Total flux 6 hours (female C57BL/6 mice)	Total flux 48 hours (female C57BL/6 mice)	Total flux 72 hours (female C57BL/6 mice)	Total flux (female C57BL/6 mice)	Fold increase in total flux at 3 h, MC3 (female C57BL/6 mice)	Fold increase in total flux at 3 h, SM-102 (female C57BL/6 mice)	Normalized EE % D-1 ([3]; fLuc mRNA-LNP stored at 4° C.)	Size (nm) D-1 ([3]; fLuc mRNA-LNP stored at 4° C.)	Normalized EE % D-7 ([3]; fLuc mRNA-LNP stored at 4° C.)	PDI D-7 ([3]; fLuc mRNA-LNP stored at 4° C.)	Size (nm) D-7 ([3]; fLuc mRNA-LNP stored at 4° C.)	Normalized EE % D-30 ([3]; fLuc mRNA-LNP stored at 4° C.)	PDI D-30 ([3]; fLuc mRNA-LNP stored at 4° C.)	Size (nm) D-30 ([3]; fLuc mRNA-LNP stored at 4° C.)	also measured
CCCCCCCCCCCOC(=O)CCCCCN(CCCCCCCC(=O)OC(CCCCCCCC)CCCCCCCC)CC(O)CCCCNC(=O)c1nccn1C (stereo not drawn) [Compound 36, Heptadecan-9-yl 8-((2-hydroxy-6-(1-methyl-1H-imidazole-2-carboxamido)hexyl)(6-oxo-6-(undecyloxy)hexyl)amino)octanoate]	0.073	112 nm	−3.19 mV	87%	1.62E+07	4.51E+07	3.18E+07	3.79E+06	3.09E+06	1.03E+07	3.65	0.40	87.2%	111.9 nm	89.1%	0.146	114.4 nm	86.6%	0.076	120.9 nm	Normalized EE % D-1 ([3]; fLuc mRNA-LNP stored at 25° C.): 87.2%; PDI D-1 ([3]; fLuc mRNA-LNP stored at 25° C.): 0.073; Size (nm) D-1 ([3]; fLuc mRNA-LNP stored at 25° C.): 111.9 nm; Normalized EE % D-7 ([3]; fLuc mRNA-LNP stored at 25° C.): 89.0%; PDI D-7 ([3]; fLuc mRNA-LNP stored at 25° C.): 0.123; Size (nm) D-7 ([3]; fLuc mRNA-LNP stored at 25° C.): 110.6 nm; Normalized EE % D-30 ([3]; fLuc mRNA-LNP stored at 25° C.): 83.8%; PDI D-30 ([3]; fLuc mRNA-LNP stored at 25° C.): 0.092; Size (nm) D-30 ([3]; fLuc mRNA-LNP stored at 25° C.): 119.2 nm; CCL2 Average [4]: 1.86; CCL3 Average [5]: 2.40; IL-1β Average [6]: 0.96; IL-6 Average [7]: 1.30
CCCCCCCCCCCOC(=O)CCCCCN(CCCCCCCC(=O)OC(CCCCCCCC)CCCCCCCC)CC(O)CCCCNC(=O)c1c[nH]c(O)n1 (stereo not drawn) [Compound 35, Heptadecan-9-yl 8-((2-hydroxy-6-(2-hydroxy-1H-imidazole-4-carboxamido)hexyl)(6-oxo-6-(undecyloxy)hexyl)amino)octanoate]	0.040	123 nm	−3.90 mV	90%	1.54E+07	4.49E+07	5.04E+07	7.96E+05	1.27E+06	6.12E+06	3.64	0.40	90.2%	123.4 nm	83.7%	0.089	130.3 nm	88.6%	0.127	141.3 nm	Normalized EE % D-1 ([3]; fLuc mRNA-LNP stored at 25° C.): 90.2%; PDI D-1 ([3]; fLuc mRNA-LNP stored at 25° C.): 0.040; Size (nm) D-1 ([3]; fLuc mRNA-LNP stored at 25° C.): 123.4 nm; Normalized EE % D-7 ([3]; fLuc mRNA-LNP stored at 25° C.): 85.3%; PDI D-7 ([3]; fLuc mRNA-LNP stored at 25° C.): 0.098; Size (nm) D-7 ([3]; fLuc mRNA-LNP stored at 25° C.): 133.3 nm; Normalized EE % D-30 ([3]; fLuc mRNA-LNP stored at 25° C.): 88.3%; PDI D-30 ([3]; fLuc mRNA-LNP stored at 25° C.): 0.076; Size (nm) D-30 ([3]; fLuc mRNA-LNP stored at 25° C.): 123.8 nm; CCL2 Average [4]: 1.42; CCL3 Average [5]: 2.30; IL-1β Average [6]: 0.91; IL-6 Average [7]: 1.14
CCCCCCCCCCCOC(=O)CCCCCN(CCCCCCCC(=O)OC(CCCCCCCC)CCCCCCCC)CC(O)CCCCNC(=O)c1ccc[nH]1 (stereo not drawn) [Compound 16, Heptadecan-9-yl 8-((2-hydroxy-6-(1H-pyrrole-2-carboxamido)hexyl)(6-oxo-6-(undecyloxy)hexyl)amino)octanoate]	0.101	132 nm	−7.87 mV	91%	1.11E+07	5.26E+07	3.64E+07	1.71E+06	1.40E+06	1.61E+07	4.26	0.47	90.9%	132.2 nm	91.5%	0.138	137.1 nm	86.9%	0.069	141.5 nm	Normalized EE % D-1 ([3]; fLuc mRNA-LNP stored at 25° C.): 90.9%; PDI D-1 ([3]; fLuc mRNA-LNP stored at 25° C.): 0.101; Size (nm) D-1 ([3]; fLuc mRNA-LNP stored at 25° C.): 132.2 nm; Normalized EE % D-7 ([3]; fLuc mRNA-LNP stored at 25° C.): 89.1%; PDI D-7 ([3]; fLuc mRNA-LNP stored at 25° C.): 0.059; Size (nm) D-7 ([3]; fLuc mRNA-LNP stored at 25° C.): 137.7 nm; Normalized EE % D-30 ([3]; fLuc mRNA-LNP stored at 25° C.): 84.4%; PDI D-30 ([3]; fLuc mRNA-LNP stored at 25° C.): 0.093; Size (nm) D-30 ([3]; fLuc mRNA-LNP stored at 25° C.): 145.1 nm; CCL2 Average [4]: 0.79; CCL3 Average [5]: 2.31; IL-1β Average [6]: 0.74; IL-6 Average [7]: 0.97
